These are literature values, as cited in the CATMoS acute toxicity set (Mansouri et al. 2021).

A short description of this data set: rat acute oral toxicity. The following applies: in vivo.
Broadly, the LD50 is the dose at which mortality reaches 50%. On to `C=COCCSCCCC`, for which the LD50 is 2830 mg/kg.
With `CNc1nc(Cl)c(SC)c(N2CCN(C)CC2)n1`, the LD50 is 800 mg/kg.
As to `O=C(O)c1cc(S(=O)(=O)O)ccc1O`, the LD50 was 1850 mg/kg.
`C=CCOC(=O)CCC`: the median lethal dose (LD50) was 250 mg/kg.
Regarding `C1N2CN3CN1CN(C2)C3`, the 50% lethal dose (LD50) was 9200 mg/kg.
Take `c1ccc2c(c1)OCCOCCOc1ccccc1OCCOCCO2`: the LD50 was 2600 mg/kg.
Regarding `CCSCCOP(=S)(OC)OC`, the LD50 was 75 mg/kg.
Take `C#CC(OC(=O)C1C(C=C(C)C)C1(C)C)/C(C)=C/CC` (centres undefined): the LD50 is 1680 mg/kg.
Consider `CC(NCCNC(C)c1ccccc1)c1ccccc1` (centres undefined), for which the LD50 was 1290 mg/kg.
As to `Cc1nc(C(C)C)c(=O)[nH]c1C`, the 50% lethal dose (LD50) is 903 mg/kg.
Take `CN(C)C(=O)Nc1ccc(SC(F)(F)Cl)c(Cl)c1`: the LD50 is 336 mg/kg.
As for `CC(=O)OC1CCCCC1C(C)(C)C` (centres undefined), the LD50 is 4600 mg/kg.
Turning to `Cc1cc(C)c(C2=C(OC(=O)OC(C)C)c3ccccc3C2=O)c(C)c1`, the 50% lethal dose (LD50) is 707 mg/kg.
Turning to `C=C(Cl)c1ccc([N+](=O)[O-])cc1`, the 50% lethal dose (LD50) is 710 mg/kg.
Turning to `CCO[Si](CS)(OCC)OCC`, the 50% lethal dose (LD50) is 2550 mg/kg.
Turning to `Oc1c(Cl)cc(Cl)c(Cl)c1Cc1c(O)c(Cl)cc(Cl)c1Cl`, the 50% lethal dose (LD50) is 59.2 mg/kg.
In the case of `CCCc1ccn[nH]1`, the median lethal dose (LD50) was 616 mg/kg.
Regarding `CCNC(C)Cc1cccc(C(F)(F)F)c1` (centres undefined), the median lethal dose (LD50) was 130 mg/kg.
For the compound `O=S(=O)(O)c1ccc2c(c1)-c1nc-2nc2[nH]c(nc3nc(nc4[nH]c(n1)c1ccccc41)-c1ccccc1-3)c1ccccc21`, the LD50 was 3600 mg/kg.
With `COP(=S)(OC)Oc1cc(Cl)c([N+](=O)[O-])c(Cl)c1`, the LD50 is 750 mg/kg.
For `Nc1ncc2[nH]cnc2n1`, the LD50 is 723 mg/kg.
As to `CCC(C)(CC)c1cc(N)on1`, the LD50 is 144 mg/kg.
For `O=NN(CCO)CCO`, the 50% lethal dose (LD50) was 7500 mg/kg.
On to `C/N=N/Nc1ccc(Cl)cc1`, for which the LD50 was 329 mg/kg.
Take `CC1=C(C)C(=O)C(C(CCCCCC(=O)O)c2ccccc2)=C(C)C1=O` (racemic): the LD50 is 3750 mg/kg.
For the compound `CCc1ccc([N+]([O-])=Cc2ccccc2)cc1`, the LD50 was 1340 mg/kg.
In the case of `COC(=NC#N)OC`, the median lethal dose (LD50) was 1500 mg/kg.
With `CN1C(C(=O)Nc2ccccn2)=C(OC(=O)C(C)(C)C)c2sc(Cl)cc2S1(=O)=O`, the LD50 is 24.6 mg/kg.
Consider `CC12CCC3c4ccc(O)cc4CCC3C1CC[C@@H]2OC(=O)COC(=O)CCCc1ccc(N(CCCl)CCCl)cc1` (some centres undefined), for which the LD50 was 682 mg/kg.
As for `CN(SC(Cl)(Cl)Cl)C(=O)ON=C1SC(=C(C#N)C#N)SC1(C)C`, the 50% lethal dose (LD50) was 538 mg/kg.
On to `O=C=Nc1ccc(Cc2ccc(N=C=O)cc2)cc1`, for which the LD50 is 9200 mg/kg.
With `COB1OB(OC)OB(OC)O1`, the LD50 was 5160 mg/kg.
Take `CC(C)COCCO`: the LD50 was 400 mg/kg.
Turning to `CN(C)C(=O)N(C)N=O`, the LD50 is 240 mg/kg.
On to `CNC(=O)c1c(I)c(C(=O)NCC(=O)Nc2c(I)c(C(=O)O)c(I)c(C(=O)NCCO)c2I)c(I)c(N(C)C(C)=O)c1I`, for which the LD50 is 13300 mg/kg.
`NNC(=S)NN`: the median lethal dose (LD50) is 21.6 mg/kg.
Regarding `CC(C(=O)O)c1ccc(-n2cc3ccccc3n2)cc1` (centres undefined), the LD50 is 1550 mg/kg.
With `CCCCCCCCCCCCCCCCCOCC`, the LD50 is 1260 mg/kg.
Consider `COC(=O)[C@H]1[C@H]2C[C@@H]3c4[nH]c5cc(OC)ccc5c4CCN3C[C@H]2C[C@H](OC)[C@@H]1OC`, for which the LD50 was 182 mg/kg.
Take `CC(=O)CC(C)(C)N(C)N=O`: the LD50 is 2100 mg/kg.
Regarding `CC(C)(C)CCCCC(=O)O`, the LD50 was 2070 mg/kg.
For `CN(C)CCOCCOC(=O)N1c2ccccc2Sc2ccccc21`, the 50% lethal dose (LD50) was 1500 mg/kg.
On to `CCOC(C1=NCC(C)(C)CN1)c1ccc(OC)c(F)c1` (centres undefined), for which the median lethal dose (LD50) is 320 mg/kg.
For `Clc1nc(C(Cl)Cl)c(Cl)c(Cl)c1Cl`, the LD50 was 1780 mg/kg.
Turning to `O=C(Nc1cccc(Cl)c1)OCC#CCOC(=O)Nc1cccc(Cl)c1`, the LD50 was 2040 mg/kg.
Turning to `O=[N+]([O-])c1c(Cl)cc(Cl)c([N+](=O)[O-])c1Cl`, the LD50 was 500 mg/kg.
Regarding `CN1CCC[C@@H]1CCO[C@](C)(c1ccccc1)c1ccc(Cl)cc1`, the LD50 was 3550 mg/kg.
As to `CN(C(=O)c1ccc(N)cc1)C1CCN(C2CCCCC2)C1` (centres undefined), the LD50 was 422 mg/kg.
On to `CCNc1nc(NCC)nc(OC)n1`, for which the LD50 is 535 mg/kg.
For the compound `C1C[C@H]2C[C@@H]1[C@H]1SSS[C@@H]21`, the LD50 was 300 mg/kg.
For `CCC(CC)(CO)CO`, the LD50 was 850 mg/kg.
In the case of `CCN(Cc1ccccc1)N=O`, the LD50 was 250 mg/kg.
In the case of `O=C(c1cc(O)c(O)c(O)c1)c1ccc(O)c(O)c1O`, the LD50 was 1420 mg/kg.
As to `CC(C)N=C1SC(=NOC(=O)N(C)SC(Cl)(Cl)Cl)C(C)(C)S1`, the LD50 was 226 mg/kg.
As for `CC(=O)OC1CC2(O)C(CCC3(C)C(c4ccc(=O)oc4)CCC32O)C2(C)CCC(O)C=C12` (centres undefined), the median lethal dose (LD50) was 4.2 mg/kg.
For `COc1cc2[nH]c3c(c2cc1OC)CCN1CC2C(C)OC=C(C(=O)OCCN(C)C)C2CC31` (centres undefined), the LD50 is 2350 mg/kg.
For `O=C(C(Cl)Cl)C(Cl)(Cl)Cl`, the 50% lethal dose (LD50) is 200 mg/kg.
As for `COc1cc(N)c(Cl)cc1C(=O)NC1CCNCC1`, the median lethal dose (LD50) was 2550 mg/kg.
As to `CC(=O)c1cccc(Oc2ccccc2)c1`, the LD50 was 4160 mg/kg.
